Activity calls are given as the source filed them. No rule for the calls is given here.

This experiment relates to MRP1 cells, doxorubicin viability shift, 10 uM compound. As to the kind of experiment: doxorubicin EC50 increase in MRP-1 cells, dose response, cell-based, doxorubicin EC50 shift (AID 844). Conditions: for EC50: measured here: doxorubicin EC50 with compound.

A word on the EC50: it is the concentration giving half of the maximal effect. `O=C(Nc1ccc(F)cc1)c1c(O)c2c(n(Cc3ccccc3)c1=O)CCCC2`: the fold increase in Dox EC50 is 1.31 (inactive) and the EC50 amounted to 7.07 µM.

Take `COc1ccc(Cn2c(O)c(C=Nc3ccc(OC)cc3)c3ccccc3c2=O)cc1`: the fold increase in Dox EC50 is 1.34 (inactive) and the EC50 worked out at 7.24 µM.

As for `COC(=O)/C(=C/Nc1ccc(O)cc1)[N+](=O)[O-]`, the fold increase in Dox EC50 is 0.21 (inactive) and the concentration for a half-maximal effect (EC50) was 1.12 µM.

In the case of `COc1ccc(/C=N/Nc2cc(C)nc(-n3nc(C)cc3C)n2)cc1`, the fold increase in Dox EC50 is 0.12 (inactive) and the EC50 turned out to be 0.656 µM.

Turning to `O=C(COC(=O)c1c(Cl)cccc1Cl)Nc1cc(Cl)ccc1Oc1ccccc1`, the fold increase in Dox EC50 is 0.36 (inactive) and the EC50 turned out to be 1.97 µM.

For the compound `CC(CCc1ccccc1)NC(=O)C1CCN(C(=O)c2sccc2-n2cccc2)CC1` (stereo not drawn), the fold increase in Dox EC50 was 0.28 (inactive) and the EC50 was found to be 1.51 µM.

Turning to `Cc1onc(-c2ccccc2)c1C(=O)Nc1nnc(N(C)Cc2ccccc2)s1`, the fold increase in Dox EC50 was 0.64 (inactive) and the EC50 worked out at 3.46 µM.

With `CCCCCn1c(CN2CCCCC2C)nc2c1c(=O)n(C)c(=O)n2C` (stereo not drawn), the fold increase in Dox EC50 was 0.16 (inactive) and the EC50 came out at 0.883 µM.

As to `N=C(N)SCc1nc2ccccn2c1Br`, the fold increase in Dox EC50 is 0.28 (inactive) and the EC50 turned out to be 1.49 µM.

Regarding `CCCCOc1ccc(C(=O)Oc2ccc(C)nc2)cc1`, the fold increase in Dox EC50 is 0.9 (inactive) and the EC50 is 4.88 µM.

For `COc1ccc(C(=O)NCc2ccc(-c3nc4ccccc4s3)cc2)cc1`, the fold increase in Dox EC50 is 1.57 and the EC50 worked out at 8.47 µM.

Turning to `COc1ccc(NS(=O)(=O)c2cc(NC(=O)CNC(=O)c3ccc(C)s3)ccc2Cl)cc1`, the fold increase in Dox EC50 was 1.44 (inactive) and the EC50 came to 7.78 µM.

For `O=C(CSc1ncn[nH]1)Nc1ccc(Br)cc1F`, the fold increase in Dox EC50 is 0.98 (inactive) and the EC50 worked out at 5.28 µM.

In the case of `CCC(Sc1nc2ccccc2s1)C(=O)Nc1nnc(C)s1` (stereo not drawn), the fold increase in Dox EC50 was 1.04 (inactive) and the EC50 came to 5.61 µM.

Regarding `Clc1ccc(Cc2nnc(-c3ccccc3Br)o2)cc1`, the fold increase in Dox EC50 was 1.14 (inactive) and the EC50 worked out at 6.15 µM.

Take `Cc1c(C(=O)OC(C)C)sc(N)c1C(=O)OC(C)C`: the fold increase in Dox EC50 is 0.94 (inactive) and the EC50 stood at 5.08 µM.

In the case of `O=C(CC(NC(=O)C(F)(F)F)c1ccccc1)Nc1nnc(CCc2ccccc2)s1` (stereo not drawn), the fold increase in Dox EC50 was 1.85 and the EC50 is 9.97 µM.

In the case of `Fc1ccc(-n2nnnc2-c2cnc(-c3cccs3)nc2C(F)(F)F)cc1`, the fold increase in Dox EC50 was 0.6 (inactive) and the EC50 came out at 3.24 µM.

On to `CC(/C=N\NC(=O)CN1CCN(S(=O)(=O)c2ccc(C)cc2)CC1)=C\c1ccccc1`, for which the fold increase in Dox EC50 is 1.26 (inactive) and the EC50 stood at 6.79 µM.

Consider `Cc1ccc(C(=O)CSc2n[nH]c(-c3ccco3)n2)cc1C`, for which the fold increase in Dox EC50 was 0.74 (inactive) and the EC50 is 3.97 µM.

As for `COc1ccc(NC(=O)c2oc3ccccc3c2NC(=O)C(C)(C)C)cc1`, the fold increase in Dox EC50 is 0.63 (inactive) and the EC50 came to 3.41 µM.

`CCCCc1ccc(-c2nc(-c3ccncc3)no2)cc1`: the fold increase in Dox EC50 is 0.76 (inactive) and the EC50 came to 4.09 µM.

Regarding `Cc1ccc(NC(=O)CCC(=O)N/N=C/c2cccs2)cc1C`, the fold increase in Dox EC50 was 0.97 (inactive) and the EC50 was found to be 5.23 µM.

`CCc1nnc(NC(=O)c2ccc(S(=O)(=O)N3CCCCCC3)cc2)s1`: the fold increase in Dox EC50 is 0.9 (inactive) and the EC50 stood at 4.88 µM.

In the case of `Cc1cccc(OCc2nc(-c3nonc3N)no2)c1C`, the fold increase in Dox EC50 was 0.78 (inactive) and the EC50 stood at 4.22 µM.

Consider `Cc1ccc(C(c2nnnn2CS(=O)(=O)c2ccc(C)cc2)N2CCN(c3ncccn3)CC2)cc1` (stereo not drawn), for which the fold increase in Dox EC50 is 0.48 (inactive) and the EC50 was 2.58 µM.

Regarding `COc1ccc(-c2c(C#N)c(N)nc3sc(C(=O)c4ccccc4)c(N)c23)cc1`, the fold increase in Dox EC50 is 0.34 (inactive) and the EC50 stood at 1.86 µM.

Turning to `Cc1nnc(NC(=O)C(C)Oc2ccc3c(C)cc(=O)oc3c2)s1` (stereo not drawn), the fold increase in Dox EC50 was 1.29 (inactive) and the EC50 was 6.99 µM.

Consider `Cc1ccc(C(c2sc3ncnn3c2O)N2CC(C)CC(C)C2)cc1` (stereo not drawn), for which the fold increase in Dox EC50 was 0.72 (inactive) and the EC50 came out at 3.89 µM.

Regarding `N#CCn1nnc(-c2ccc3c(c2)OCO3)n1`, the fold increase in Dox EC50 is 1.01 (inactive) and the EC50 amounted to 5.43 µM.

`Clc1ccc(CSc2ncn[nH]2)cc1`: the fold increase in Dox EC50 is 1.03 (inactive) and the EC50 came out at 5.54 µM.

Regarding `O=C(CC1SC(=O)N(Cc2ccc(Cl)cc2)C1=O)Nc1nccs1` (stereo not drawn), the fold increase in Dox EC50 is 1.75 and the 50% effective concentration (EC50) was determined as 9.46 µM.

Take `O=C1CC(N2CCC(O)(c3ccc(Br)cc3)CC2)C(=O)N1c1ccc(Cl)cc1` (stereo not drawn): the fold increase in Dox EC50 is 1.37 (inactive) and the EC50 amounted to 7.39 µM.

On to `C=CCNc1oc(COc2ccc(C)cc2)nc1C#N`, for which the fold increase in Dox EC50 was 0.66 (inactive) and the EC50 worked out at 3.59 µM.

With `Cc1nnc(NC(=O)C(C)Sc2nncn2C)s1` (stereo not drawn), the fold increase in Dox EC50 is 0.77 (inactive) and the EC50 worked out at 4.15 µM.

Take `COc1ccc(N(C(=O)Cn2cnc3ccccc32)C(C(=O)NC2CCCCC2)c2ccccc2)cc1` (stereo not drawn): the fold increase in Dox EC50 is 0.38 (inactive) and the EC50 stood at 2.07 µM.

For `COc1ccc(C(=O)Nc2ccccc2Cc2ccccc2)c(OC)c1`, the fold increase in Dox EC50 was 0.66 (inactive) and the EC50 was 3.54 µM.

`Cc1nc(=O)c(-c2ccccc2)c(C)n1-c1ccc(O)cc1`: the fold increase in Dox EC50 is 1.32 (inactive) and the concentration for a half-maximal effect (EC50) amounted to 7.13 µM.

As to `COc1ccc(N2C(S)=C(C#N)C(=O)NC2c2ccco2)cc1` (stereo not drawn), the fold increase in Dox EC50 was 0.41 (inactive) and the EC50 stood at 2.2 µM.

With `CC(=O)c1ccc(NC(=O)CCCN2C(=O)/C(=C/C(C)=C/c3ccccc3)SC2=S)cc1`, the fold increase in Dox EC50 is 0.19 (inactive) and the EC50 came to 1.01 µM.

Consider `CCOC(=O)C1=C(C)Nc2ncnn2C1c1cccnc1` (stereo not drawn), for which the fold increase in Dox EC50 is 0.83 (inactive) and the EC50 was 4.5 µM.

Regarding `COc1ccc(C(=O)Nc2ccc(Cl)c(S(=O)(=O)Nc3ccccc3OC)c2)cc1`, the fold increase in Dox EC50 is 0.57 (inactive) and the EC50 is 3.05 µM.

On to `CCC1(C)Cc2c(sc3nnn(Cc4ccccc4Cl)c(=O)c23)CO1` (stereo not drawn), for which the fold increase in Dox EC50 was 0.81 (inactive) and the EC50 was 4.35 µM.

For the compound `O=C1c2cccc3cccc(c23)C(=O)N1c1ccncc1`, the fold increase in Dox EC50 was 1.13 (inactive) and the EC50 came out at 6.09 µM.

As for `C=CCn1c(CNc2ccccc2)nnc1SCC(=O)N/N=C/c1ccccc1O`, the fold increase in Dox EC50 is 0.58 (inactive) and the EC50 worked out at 3.11 µM.

As for `O=C(NC(=S)Nc1ccccn1)c1cc(-c2ccccc2)nc2ccccc12`, the fold increase in Dox EC50 is 0.91 (inactive) and the EC50 was determined as 4.93 µM.

In the case of `Cc1ccc(NC(=O)CSc2nc(O)cc(=O)n2C)cc1`, the fold increase in Dox EC50 is 1.34 (inactive) and the EC50 turned out to be 7.25 µM.

As to `O=C1N=C(c2ccccc2)S/C1=C\c1cccs1`, the fold increase in Dox EC50 is 1.2 (inactive) and the EC50 was found to be 6.5 µM.

Take `COc1ccc(-c2nn(-c3ccccc3)cc2C(=O)Nc2nc(CC(C)=O)ns2)cc1`: the fold increase in Dox EC50 was 0.99 (inactive) and the EC50 was 5.32 µM.

For the compound `Cc1nc2cc(-c3ccsc3-n3c(C)ccc3C)[nH]n2c(=O)c1Cl`, the fold increase in Dox EC50 is 0.74 (inactive) and the EC50 worked out at 4 µM.

For the compound `COc1ccc(/C=C/C(=O)Nc2c(C)nn(C)c2C)cc1COc1ccc(Br)cc1`, the fold increase in Dox EC50 was 0.84 (inactive) and the EC50 worked out at 4.51 µM.

In the case of `CCCC(=O)c1ccc(N2CCOCC2)c(F)c1`, the fold increase in Dox EC50 is 1.07 (inactive) and the EC50 came to 5.75 µM.

As for `S=C(c1ccc(-c2ccccc2Cl)o1)N1CCCCC1`, the fold increase in Dox EC50 was 0.85 (inactive) and the EC50 is 4.59 µM.

Take `c1ccc(-n2ncc3c(NCc4cccnc4)ncnc32)cc1`: the fold increase in Dox EC50 is 0.57 (inactive) and the concentration for a half-maximal effect (EC50) is 3.09 µM.

Turning to `COc1ccc(OCc2nnc(SCC(=O)N3c4ccccc4Sc4ccc(Cl)cc43)o2)cc1`, the fold increase in Dox EC50 was 1.1 (inactive) and the EC50 turned out to be 5.92 µM.

For the compound `O=C(CSc1ncn[nH]1)NC12CC3CC(CC(C3)C1)C2`, the fold increase in Dox EC50 was 0.64 (inactive) and the EC50 came to 3.43 µM.

With `Nc1ccc(C(=O)OCC(=O)N2c3ccccc3Sc3ccccc32)cc1[N+](=O)[O-]`, the fold increase in Dox EC50 is 1.29 (inactive) and the EC50 was found to be 6.97 µM.

Take `CCc1nnc(NC(=O)c2ccc(S(=O)(=O)NCC(C)C)cc2)s1`: the fold increase in Dox EC50 is 0.53 (inactive) and the EC50 was 2.88 µM.

Take `COc1ccc(-n2ncc3c(=O)n(CC(=O)N4c5ccccc5CC4C)cnc32)cc1` (stereo not drawn): the fold increase in Dox EC50 is 0.82 (inactive) and the EC50 came to 4.44 µM.

On to `Cc1cc(C)c(N=Cc2c(O)n(-c3nccs3)c(=O)c3ccccc23)c(C)c1`, for which the fold increase in Dox EC50 was 0.29 (inactive) and the EC50 is 1.54 µM.

Regarding `CC1CC(C)CN(c2ncnc3c2cnn3-c2ccc(Cl)cc2)C1` (stereo not drawn), the fold increase in Dox EC50 is 0.35 (inactive) and the EC50 was 1.89 µM.

On to `CC(NC(=O)CN1CCN(Cc2ccc(Cl)cc2)C1=O)c1ccc2c(c1)OCCO2` (stereo not drawn), for which the fold increase in Dox EC50 was 0.87 (inactive) and the EC50 is 4.67 µM.

For `CC(C)(CNC(=O)/C=C/c1ccc(F)cc1)CNC(=O)/C=C/c1ccc(F)cc1`, the fold increase in Dox EC50 is 0.38 (inactive) and the EC50 is 2.07 µM.

On to `O=C(/C=C/NNC(=O)c1ccccc1)c1ccc(Br)cc1`, for which the fold increase in Dox EC50 was 0.53 (inactive) and the EC50 came to 2.86 µM.

The values are drawn from PubChem BioAssay AID844 (SRMLSC, 2007).
